Experimental data from article PMC7391726, “Fatty acid mimetic PBI-4547 restores metabolic homeostasis via GPR84 in mice with non-alcoholic fatty liver disease” (Scientific Reports, 2020).

Experiments:
HFD-fed Gpr84−/− mice = experiment: High-fat diet (HFD) mouse model, Gpr84−/− mice; format: in vivo
Description: Based on PBI-4547’s pharmacological profile and binding activities, we next used Gpr84^−/− mice fed a HFD to investigate the role of GPR84 in mediating the protective effects of PBI-4547 on glucose and FA metabolism.
WT or Gpr84^−/− mice, as previously described, (aged 10–14 weeks at the beginning of the experiment) were either fed a standard diet (STD) or a high-fat diet (HFD) (Envigo #TD.06414) for 14 weeks. At this point, mice were administered either vehicle (water) or PBI-4547 (10 mg/kg) on a daily basis for 6 (WT study) or 8 (WT vs KO study) weeks by gastric gavage, and were sacrificed thereafter. Liver and WAT tissues were fixed in 10% formalin for histological analyses or flash frozen in liquid nitrogen for RT-PCR analyses. All animal studies were reviewed and approved by the animal care and use committee of the Institut National de la Recherche Scientifique – Armand-Frappier (Laval, QC, Canada) and the University of Ottawa’s Animal Care and Veterinary Services (Ottawa, ON, Canada). Protocols were approved and undertaken according to the Canadian Council on Animal Care guidelines.
Oral glucose tolerance tests (OGTT) were completed 6 weeks after beginning of the treatments. Briefly, mice were fasted for 4–6 h, given a bolus of glucose at […] BW orally, and blood glucose values measured at 0, 15, 30, 60, 120 min. In parallel, a blood sample was obtained at 0, 15, 60 and 120 min for insulin quantification by ELISA (EMD Millipore).
After fixation in formalin, iWAT (inguinal), eWAT (epididymal) and liver sections were embedded in paraffin. Thin section of […] were stained with Hematoxylin and Eosin or Sirius red for analyses. WAT collagen deposition and liver characteristics of NAFLD were quantified histologically by a pathologist (R.C.) in a double-blinded manner. Liver histology was performed on H&E stained slides. WAT collagen deposition was scored using Picro Sirius-Red stained slides. Immunofluorescence-detection of α-SMA in liver sections was performed. Briefly, samples were deparaffinized in a series of xylenes, rehydrated in graded alcohols followed by an antigen-unmasking step by microwaving in Tris-buffer (pH 8.2). Sections were blocked with 10% donkey serum (Vector labs), 1% bovine serum albumin (Sigma) in PBS + 1%Tween for 1 h at room temperature. Slides were incubated overnight at 4 °C with an anti-mouse smooth muscle α-Actin antibody (1:300; Santa Cruz, clone #1A4). Secondary detection was performed using a donkey anti-mouse Alexa Fluor 594 (1:500; Molecular Probes), incubated for 1 h at room temperature. Slides were dehydrated and mounted with fluorescent antifade media containing DAPI (Vector labs). Images were taken at 100X and 200X magnification and representative images are shown.
RNA was extracted and purified as previously described. Real-time quantitative PCR was performed on a CFX96 Touch Real-Time PCR Detection System (Bio-Rad) using TaqMan gene expression assays (Fisher Scientific). qPCR data were analyzed using the 2-^ΔΔCt method, using Gapdh and Hprt as endogenous control. RT-qPCR data were reported as Geometric means ± SEM.

HepG2 hepatocytes = experiment: 14C-palmitate β-oxidation rate in HepG2 hepatocytes; format: cell-based
Description: Moreover, hepatic expression of several genes involved in glucose metabolism including Pklr (pyruvate kinase L/R), G6pc (glucose-6-phosphatase, catalytic) and Slc2a2 (Glut2) was normalized by PBI-4547 (Fig. 4B). […] To test this hypothesis, mitochondrial respiration in HepG2 hepatocytes was measured (Fig. 4C). […] However, it did decrease maximal respiration and ATP production, in agreement with the metabolomics results.
Figure 4 Effects of PBI-4547 on glucose and FA metabolism in liver. (A) Relative gene expression levels of glucose and FA-related metabolism in liver from STD, HFD and HFD + PBI-4547 mice. Data are presented as geometric mean ± SEM (n ≥ 6 per group, one-way ANOVA with Dunnett’s multicomparison test vs HFD group). (B) 1H-NMR metabolic profiling in liver tissues. (C) Oxygen Consumption Rate (OCR) and Extracellular Acidifcation Rate (ECAR) in HepG2 hepatocytes. Measurements of basal respiration, maximal respiration, ATP production and proton leak in HepG2 hepatocytes treated or not with PBI-4547. (D) Oxidation rate of ^14C-palmitate in HepG2 hepatocytes treated or not with PBI-4547. Data are presented as mean ± SEM (n = 3, Student t test Ctrl vs PBI-4547). See also Fig. S2.

[1] = WT vs KO study, HFD-fed Gpr84−/−

`CCCCCc1cc(CCCCC)cc(CC(=O)[O-])c1.[Na+]` [PBI-4547, 2-[3,5-dipentylphenyl]acetate sodium salt] was tested, and the “immunodetectable α-SMA in liver” value (HFD-fed Gpr84−/− mice; HFD-fed GPR84−/− mice) was “further decreased”, the “impact on hepatic steatosis” value (HFD-fed Gpr84−/− mice; HFD-fed Gpr84−/− (KO) mice) was “protective effect was lost” and the “expression of hepatic genes previously found regulated by PBI-4547 in WT mice” value (HFD-fed Gpr84−/− mice; HFD-fed Gpr84−/− mice, qRT-PCR) was “no longer modulated”. For the same molecule, the “WAT mean adipocyte diameters and area” value (HFD-fed Gpr84−/− mice; [1]) was “remained unchanged”, the “fasting blood glucose levels” value (HFD-fed Gpr84−/− mice; [1]) was “only in WT mice” and the serum adiponectin (HFD-fed Gpr84−/− mice; [1]) was “upregulated”. For the same molecule, the serum cholesterol levels (HFD-fed Gpr84−/− mice; [1]) was “remained unchanged”, the serum triglyceride levels (HFD-fed Gpr84−/− mice; [1]) was “only in WT mice” and the OGTT (HFD-fed Gpr84−/− mice; WT vs KO study, HFD-fed Gpr84−/−, after 6 weeks) was “only had a significant effect on OGTT in WT mice”. For the same molecule, the “modulatory effect on pro-inflammatory and pro-fibrotic markers in WAT” value (HFD-fed Gpr84−/− mice; mice lacking the GPR84 receptor) was “absent” and the “oxidation of 14C-palmitate (β-oxidation rate)” value (HepG2 hepatocytes) was “dose-dependently increased”.
